These results are taken from US8283361B2 (AstraZeneca AB, priority 2008, dated 2012).

The inhibition is the relative decrease from the control value, in per cent.

Structures can show the parent of a compound that is named as a salt.

Sequence of S. aureus GyrB ATPase (P0A0K8 whole entry): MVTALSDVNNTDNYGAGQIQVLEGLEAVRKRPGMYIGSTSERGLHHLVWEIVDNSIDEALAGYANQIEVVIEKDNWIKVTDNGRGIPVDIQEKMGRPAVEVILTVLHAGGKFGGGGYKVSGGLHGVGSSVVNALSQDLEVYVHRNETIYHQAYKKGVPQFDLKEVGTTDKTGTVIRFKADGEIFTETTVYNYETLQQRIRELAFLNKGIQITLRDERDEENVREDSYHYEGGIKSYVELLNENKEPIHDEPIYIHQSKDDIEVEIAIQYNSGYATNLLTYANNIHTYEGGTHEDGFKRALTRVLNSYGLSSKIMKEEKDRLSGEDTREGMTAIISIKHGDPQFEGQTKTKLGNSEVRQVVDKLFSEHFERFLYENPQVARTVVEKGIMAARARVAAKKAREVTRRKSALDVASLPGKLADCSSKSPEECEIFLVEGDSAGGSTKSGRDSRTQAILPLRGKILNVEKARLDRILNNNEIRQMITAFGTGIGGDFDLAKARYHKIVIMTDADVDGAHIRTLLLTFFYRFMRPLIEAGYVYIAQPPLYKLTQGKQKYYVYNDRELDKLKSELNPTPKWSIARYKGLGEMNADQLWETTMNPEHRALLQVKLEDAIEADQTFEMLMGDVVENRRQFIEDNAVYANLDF
Sequence of S. aureus GyrB ATPase (P0AES4 whole entry, further chain): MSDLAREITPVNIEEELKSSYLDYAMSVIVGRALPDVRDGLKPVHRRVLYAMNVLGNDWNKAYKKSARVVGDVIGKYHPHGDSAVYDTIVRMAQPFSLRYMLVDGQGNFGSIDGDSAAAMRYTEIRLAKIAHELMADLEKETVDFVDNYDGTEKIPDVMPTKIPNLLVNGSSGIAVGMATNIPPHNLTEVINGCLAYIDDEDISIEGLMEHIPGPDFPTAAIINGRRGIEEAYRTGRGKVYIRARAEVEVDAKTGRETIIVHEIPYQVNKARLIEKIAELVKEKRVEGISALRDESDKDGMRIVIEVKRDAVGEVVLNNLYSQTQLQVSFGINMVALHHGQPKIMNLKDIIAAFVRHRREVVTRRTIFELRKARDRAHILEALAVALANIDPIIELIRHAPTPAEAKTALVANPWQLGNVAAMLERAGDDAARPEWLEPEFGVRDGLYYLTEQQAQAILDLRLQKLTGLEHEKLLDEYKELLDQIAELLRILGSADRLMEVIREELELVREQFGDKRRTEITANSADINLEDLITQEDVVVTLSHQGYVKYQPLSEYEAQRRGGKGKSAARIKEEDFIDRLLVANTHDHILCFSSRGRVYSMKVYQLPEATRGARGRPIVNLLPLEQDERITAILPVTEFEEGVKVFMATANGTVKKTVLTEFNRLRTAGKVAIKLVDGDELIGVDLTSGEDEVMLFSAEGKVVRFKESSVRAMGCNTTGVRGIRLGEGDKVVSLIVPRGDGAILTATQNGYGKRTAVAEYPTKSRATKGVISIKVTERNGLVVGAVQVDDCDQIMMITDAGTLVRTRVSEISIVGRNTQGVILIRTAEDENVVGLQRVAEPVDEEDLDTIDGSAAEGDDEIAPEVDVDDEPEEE

For one test, the target named is S. aureus GyrB ATPase (Staphylococcus aureus, UniProt P0A0K8). Nature of the test: biochemical. The conditions noted are these: compound at 1 μM; one value per test if tested more than once; 1 µM. In short, it runs like this:
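IC50 values derive from 10-point titrations of compound (in DMSO). Phosphate formed from 250 μM ATP was quantified by acidic molybdate/malachite green after quenching.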
For the compound `CCCNC(=O)Nc1cc(-c2nc(C(F)(F)F)cs2)c(-c2ccc3c(c2)c(=O)c(C(=O)O)cn3CCN(C)C)cn1` [Example 152, 1-(2-(dimethylamino)ethyl)-4-oxo-6-(6-(3-propylureido)-4-(4-(trifluoromethyl)thiazol-2-yl)pyridin-3-yl)-1,4-dihydroquinoline-3-carboxylic acid], the “% Inhibition of S. aureus GyrB ATPase” value was found to be 106%.

Staying with this test, now noted: compound at 1 μM; one value per test if tested more than once; read-out: % Inhibition of S. aureus GyrB ATPase.
As for `CCCNC(=O)Nc1cc(-c2nc(C(F)(F)F)cs2)c(-c2ccc3c(c2)c(=O)c(C(=O)N2CCNCC2)cn3CCN(C)C)cn1` [Example 161, 1-(5-(1-(2-(dimethylamino)ethyl)-4-oxo-3-(piperazine-1-carbonyl)-1,4-dihydroquinolin-6-yl)-4-(4-(trifluoromethyl)thiazol-2-yl)pyridin-2-yl)-3-propylurea], the inhibition at 1 µM was determined as 101%.

As to `CCNC(=O)Nc1cc(-c2nc(C(F)(F)F)cs2)c(-c2ccc3c(c2)c(=O)c(C(=O)O)cn3C(C)CN(C)C)cn1` (stereo not drawn) [Example 126, 1-(1-(dimethylamino)propan-2-yl)-6-(6-(3-ethylureido)-4-(4-(trifluoromethyl)thiazol-2-yl)pyridin-3-yl)-4-oxo-1,4-dihydroquinoline-3-carboxylic acid], the inhibition at 1 µM is 117%. On the same count and under the same terms, to `CCNC(=O)Nc1cc(-c2nc(C(F)(F)F)cs2)c(-c2ccc3c(c2)c(=O)c(C(=O)O)cn3C[C@@H]2CCCNC2)cn1` [Example 242, (R)-1-((1-piperidin-3-yl)methyl)-6-(6-(3-ethylureido)-4-(4-(trifluoromethyl)thiazol-2-yl)pyridin-3-yl)-4-oxo-1,4-dihydroquinoline-3-carboxylic acid] belongs 104%; to `CCNC(=O)Nc1cc(-c2nc(C(F)(F)F)cs2)c(-c2ccc3c(c2)c(=O)c(C(=O)O)cn3[C@@H](CC)CO)cn1` [Example 86, (S)-6-(6-(3-ethylureido)-4-(4-(trifluoromethyl)thiazol-2-yl)pyridin-3-yl)-1-(1-hydroxybutan-2-yl)-4-oxo-1,4-dihydroquinoline-3-carboxylic acid], 98%; to `CCNC(=O)Nc1cc(-c2nc(C(F)(F)F)cs2)c(-c2ccc3c(c2)c(=O)c(C(=O)O)cn3CC2CCN(CCO)C2)cn1` (stereo not drawn) [Example 308, 6-(6-(3-ethylureido)-4-(4-(trifluoromethyl)thiazol-2-yl)pyridin-3-yl)-1-((1-(2-hydroxyethyl)pyrrolidin-3-yl)methyl)-4-oxo-1,4-dihydroquinoline-3-carboxylic acid hydrochloride], 111%. Same read-out and setting: to `CCNC(=O)Nc1cc(-c2nc(C(F)(F)F)cs2)c(-c2ccc3c(c2)c(=O)c(C(=O)NC)cn3CC)cn1` [Example 34, 1-ethyl-6-(6-(3-ethylureido)-4-(4-(trifluoromethyl)thiazol-2-yl)pyridin-3-yl)-N-methyl-4-oxo-1,4-dihydroquinoline-3-carboxamide] belongs 100%; to `CCCNC(=O)Nc1cc(-c2nc(C(F)(F)F)cs2)c(-c2ccc3c(c2)c(=O)c(C(=O)O)cn3CCN(C)C)cn1` [Example 152, 1-(2-(dimethylamino)ethyl)-4-oxo-6-(6-(3-propylureido)-4-(4-(trifluoromethyl)thiazol-2-yl)pyridin-3-yl)-1,4-dihydroquinoline-3-carboxylic acid], 95%; to `CCNC(=O)Nc1cc(-c2nc(C(F)(F)F)cs2)c(-c2ccc3c(c2)c(=O)c(C(=O)O)cn3[C@@H](CO)C(C)(C)C)cn1` [Example 76, (R)-6-(6-(3-ethylureido)-4-(4-(trifluoromethyl)thiazol-2-yl)pyridin-3-yl)-1-(1-hydroxy-3,3-dimethylbutan-2-yl)-4-oxo-1,4-dihydroquinoline-3-carboxylic acid], 110%. Turning to `CCNC(=O)Nc1cc(-c2nc(C(F)(F)F)cs2)c(-c2ccc3c(=O)c(C(=O)NCCO)cn(CC)c3c2)cn1` [Example 330, 1-Ethyl-7-{6-[(ethylcarbamoyl)amino]-4-[4-(trifluoromethyl)-1,3-thiazol-2-yl]pyridin-3-yl}-N-(2-hydroxyethyl)-4-oxo-1,4-dihydroquinoline-3-carboxamide], the inhibition at 1 µM came to 109%. Same read-out and setting: under `CCNC(=O)Nc1cc(-c2nc(C(F)(F)F)cs2)c(-c2ccc3c(=O)c(C(=O)NCCO)cn(CC4CC4)c3c2)cn1` [Example 375, 1-(Cyclopropylmethyl)-7-{6-[(ethylcarbamoyl)amino]-4-[4-(trifluoromethyl)-1,3-thiazol-2-yl]pyridin-3-yl}-N-(2-hydroxyethyl)-4-oxo-1,4-dihydroquinoline-3-carboxamide] stands 99%; under `CCCn1cc(C(=O)O)c(=O)c2ccc(-c3cnc(NC(=O)NCC)cc3-c3nc(C(F)(F)F)cs3)cc21` [Example 27, 7-{6-[(ethylcarbamoyl)amino]-4-[4-(trifluoromethyl)-1,3-thiazol-2-yl]pyridin-3-yl}-4-oxo-1-propyl-1,4-dihydroquinoline-3-carboxylic acid], 99%; under `CCNC(=O)Nc1cc(-c2nc(C(F)(F)F)cs2)c(-c2ccc3c(=O)c(C(=O)NC)cn(CCOC)c3c2)cn1` [Example 369, 7-{6-[(Ethylcarbamoyl)amino]-4-[4-(trifluoromethyl)-1,3-thiazol-2-yl]pyridin-3-yl}-1-(2-methoxyethyl)-N-methyl-4-oxo-1,4-dihydroquinoline-3-carboxamide], 97%. Same read-out and setting: under `CCNC(=O)Nc1cc(-c2nc(C(F)(F)F)cs2)c(-c2ccc3c(c2)c(=O)c(C(=O)O)cn3C[C@@H]2CCN(CCN3CCOCC3)C2)cn1` [Example 237, (R)-6-(6-(3-ethylureido)-4-(4-(trifluoromethyl)thiazol-2-yl)pyridin-3-yl)-1-((1-(2-morpholinoethyl)pyrrolidin-3-yl)methyl)-4-oxo-1,4-dihydroquinoline-3-carboxylic acid] stands 103%. The same measure, in the same setting: to `CCNC(=O)Nc1cc(-c2nc(C(F)(F)F)cs2)c(-c2ccc3c(=O)c(C(=O)NCCCO)cn(Cc4ccccc4)c3c2)cn1` [Example 355, 1-Benzyl-7-{6-[(ethylcarbamoyl)amino]-4-[4-(trifluoromethyl)-1,3-thiazol-2-yl]pyridin-3-yl}-N-(3-hydroxypropyl)-4-oxo-1,4-dihydroquinoline-3-carboxamide] belongs 87%; to `CCCNC(=O)Nc1cc(-c2nc(C(F)(F)F)cs2)c(-c2ccc3c(c2)c(=O)c(C(=O)O)cn3C2CN(C)C2)cn1` [Example 153, 1-(1-methylazetidin-3-yl)-4-oxo-6-(6-(3-propylureido)-4-(4-(trifluoromethyl)thiazol-2-yl)pyridin-3-yl)-1,4-dihydroquinoline-3-carboxylic acid], 105%; to `CCCn1cc(C(=O)NCCCO)c(=O)c2ccc(-c3cnc(NC(=O)NCC)cc3-c3nc(C(F)(F)F)cs3)cc21` [Example 349, 7-{6-[(ethylcarbamoyl)amino]-4-[4-(trifluoromethyl)-1,3-thiazol-2-yl]pyridin-3-yl}-N-(3-hydroxypropyl)-4-oxo-1-propyl-1,4-dihydroquinoline-3-carboxamide], 108%.

As to `CCNC(=O)Nc1cc(-c2nc(C(F)(F)F)cs2)c(-c2ccc3c(c2)c(=O)c(C(=O)O)cn3C(CO)C2CCOCC2)cn1` (stereo not drawn) [Example 80, 6-(6-(3-ethylureido)-4-(4-(trifluoromethyl)thiazol-2-yl)pyridin-3-yl)-1-(-hydroxy-1-(tetrahydro-H-pyran-4-yl)ethyl)-4-oxo-1,4-dihydroquinoline-3-carboxylic acid], the inhibition at 1 µM worked out at 96%.
